Reference: patent US20130157953A1, “TREATMENT OF CARDIAC CONDITIONS” (Zealand Pharma A/S, priority 2010, published 2013)
Numbered stars: 1 amine (or outer) side, 2 acyl side, 3 side chain; on linkers, the order of the positions; unused ones are H or OH. Bridge positions count the residues as written; N and C are the ends. Square brackets hold non-standard residues; d marks the D form. Side chains are listed from the residue outwards. Peptide text beside a SMILES is read from it. * marks the point of attachment. γGlu = O=C(O)[C@H](CCC(=O)[*:2])N[*:1]; εLys = N[C@@H](CCCCN[*:1])C(=O)[*:2]; Palmitoyl = CCCCCCCCCCCCCCCC(=O)*; Aib = CC(C)(N)C(=O)O

B1: Compound 217 (peptide)
peptide: H-H[Aib]QGTFTSDYSKYLDSK([εLys-Palmitoyl])AAHDFVEWLLSA-NH2
SMILES: CCCCCCCCCCCCCCCC(=O)NCCCC[C@H](N)C(=O)NCCCC[C@H](NC(=O)[C@H](CO)NC(=O)[C@H](CC(=O)O)NC(=O)[C@H](CC(C)C)NC(=O)[C@H](Cc1ccc(O)cc1)NC(=O)[C@H](CCCCN)NC(=O)[C@H](CO)NC(=O)[C@H](Cc1ccc(O)cc1)NC(=O)[C@H](CC(=O)O)NC(=O)[C@H](CO)NC(=O)[C@@H](NC(=O)[C@H](Cc1ccccc1)NC(=O)[C@@H](NC(=O)CNC(=O)[C@H](CCC(N)=O)NC(=O)C(C)(C)NC(=O)[C@@H](N)Cc1c[nH]cn1)[C@@H](C)O)[C@@H](C)O)C(=O)N[C@@H](C)C(=O)N[C@@H](C)C(=O)N[C@@H](Cc1c[nH]cn1)C(=O)N[C@@H](CC(=O)O)C(=O)N[C@@H](Cc1ccccc1)C(=O)N[C@H](C(=O)N[C@@H](CCC(=O)O)C(=O)N[C@@H](Cc1c[nH]c2ccccc12)C(=O)N[C@@H](CC(C)C)C(=O)N[C@@H](CC(C)C)C(=O)N[C@@H](CO)C(=O)N[C@@H](C)C(N)=O)C(C)C

These molecules were tested against human glucagon-like peptide 1 receptor (GLP-1R) (human, UniProt P43220 24-463) (assay: cell-based or functional assay). Conditions: not given.

| EC50 (nM) GLP-1R; cAMP content, HEK293 cells expressing human GLP-1R [nM] | Molecule |
| --- | --- |
| 0.09 | B1 |

These molecules were tested against human glucagon receptor (Glucagon-R) (human, UniProt P47871 26-477) (assay: cell-based or functional assay). Conditions: not given.
Sequence of human glucagon receptor (Glucagon-R) (P47871 26-477): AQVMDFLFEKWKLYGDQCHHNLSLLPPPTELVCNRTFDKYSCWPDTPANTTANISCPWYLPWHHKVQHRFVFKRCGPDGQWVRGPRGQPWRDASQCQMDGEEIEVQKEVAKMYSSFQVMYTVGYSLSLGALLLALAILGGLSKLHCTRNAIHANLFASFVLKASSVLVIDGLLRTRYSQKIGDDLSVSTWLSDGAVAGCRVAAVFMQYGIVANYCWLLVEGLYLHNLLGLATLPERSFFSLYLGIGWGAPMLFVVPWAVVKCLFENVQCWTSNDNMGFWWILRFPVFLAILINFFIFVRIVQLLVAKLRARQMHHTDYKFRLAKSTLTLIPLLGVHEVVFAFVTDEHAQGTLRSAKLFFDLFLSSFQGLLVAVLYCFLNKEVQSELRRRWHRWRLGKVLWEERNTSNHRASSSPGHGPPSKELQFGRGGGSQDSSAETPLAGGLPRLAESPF

| EC50 (nM) GuR; cAMP content, HEK293 cells expressing the human glucagon receptor [nM] | Molecule |
| --- | --- |
| 0.39 | B1 |

What follows are molecules tested against T1, human GLP-1R (Homo sapiens, UniProt P43220) (assay: cAMP formation in HEK293 cells expressing human GLP-1R). Conditions: 15 min at 37° C.
T1 construct: expressed in transfected cells; host or cells: HEK293
T1 sequence (P43220 24-463): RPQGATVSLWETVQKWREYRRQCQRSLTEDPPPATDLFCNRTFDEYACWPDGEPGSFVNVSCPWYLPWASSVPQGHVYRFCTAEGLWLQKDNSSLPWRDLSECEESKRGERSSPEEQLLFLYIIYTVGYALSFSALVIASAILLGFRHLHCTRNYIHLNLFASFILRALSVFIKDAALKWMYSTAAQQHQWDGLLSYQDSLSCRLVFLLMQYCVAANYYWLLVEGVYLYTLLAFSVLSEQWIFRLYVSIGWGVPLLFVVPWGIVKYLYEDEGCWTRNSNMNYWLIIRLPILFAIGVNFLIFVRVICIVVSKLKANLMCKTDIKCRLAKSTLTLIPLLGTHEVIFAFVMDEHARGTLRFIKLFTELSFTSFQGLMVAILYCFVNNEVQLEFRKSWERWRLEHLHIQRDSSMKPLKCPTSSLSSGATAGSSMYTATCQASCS
Type: cell-based
Source text: Similarly, activation of the GLP-1 receptor by a GLP-1 agonist will stimulate cellular cAMP formation. Thus, production of cAMP in suitable cells expressing one of these two receptors can be used to monitor the relevant receptor activity.
The skilled person will be aware of suitable assay formats, and examples are provided below. […] (Where sequences of precursor proteins are referred to, it should of course be understood that assays may make use of the mature protein, lacking the signal sequence).
On the day of analysis, growth medium was removed and the cells washed once with 200 μl Tyrode buffer. Cells were incubated in […] containing increasing concentrations of test peptides, 100 μM IBMX, and 6 mM glucose for 15 min at 37° C. The reaction was stopped by addition of 25 μl 0.5 M HCl and incubated on ice for 60 min. The cAMP content was estimated using the FlashPlate® cAMP kit from Perkin-Elmer. EC50 values were estimated by computer aided curve fitting.

| EC50 [nM] | Molecule |
| --- | --- |
| 0.09 | CC(C)C[C@H](NC(=O)[C@H](CC(C)C)NC(=O)[C@H](Cc1c[nH]c2ccccc12)NC(=O)[C@H](CCC(=O)O)NC(=O)[C@@H](NC(=O)[C@H](Cc1ccccc1)NC(=O)[C@H](CC(=O)O)NC(=O)[C@H](Cc1c[nH]cn1)NC(=O)[C@H](C)NC(=O)[C@H](C)NC(=O)[C@H](CCCCN)NC(=O)[C@H](CO)NC(=O)[C@H](CC(=O)O)NC(=O)[C@H](CC(C)C)NC(=O)[C@H](Cc1ccc(O)cc1)NC(=O)[C@H](CCCCN)NC(=O)[C@H](CO)NC(=O)[C@H](Cc1ccc(O)cc1)NC(=O)[C@H](CC(=O)O)NC(=O)[C@H](CO)NC(=O)[C@@H](NC(=O)[C@H](Cc1ccccc1)NC(=O)[C@@H](NC(=O)CNC(=O)[C@H](CCC(N)=O)NC(=O)[C@@H](CO)NC(=O)[C@@H](N)Cc1c[nH]cn1)[C@@H](C)O)[C@@H](C)O)C(C)C)C(=O)N[C@@H](CCCNC(=N)N)C(=O)N[C@@H](C)C(N)=O [Compound 44] (H-H[dS]QGTFTSDYSKYLDSKAAHDFVEWLLRA-NH2) |
| 0.2 | CCCCCCCCCCCCCCCC(=O)N[C@@H](CCC(=O)NCCCC[C@H](NC(=O)[C@H](CC(=O)O)NC(=O)[C@H](CC(C)C)NC(=O)[C@H](Cc1ccc(O)cc1)NC(=O)[C@H](CCCCN)NC(=O)[C@H](CO)NC(=O)[C@H](Cc1ccc(O)cc1)NC(=O)[C@H](CC(=O)O)NC(=O)[C@H](CO)NC(=O)[C@@H](NC(=O)[C@H](Cc1ccccc1)NC(=O)[C@@H](NC(=O)CNC(=O)[C@H](CCC(N)=O)NC(=O)[C@H](CO)NC(=O)[C@@H](N)Cc1c[nH]cn1)[C@@H](C)O)[C@@H](C)O)C(=O)N[C@@H](CCCCN)C(=O)N[C@@H](C)C(=O)N[C@@H](C)C(=O)N[C@@H](Cc1c[nH]cn1)C(=O)N[C@@H](CC(=O)O)C(=O)N[C@@H](Cc1ccccc1)C(=O)N[C@H](C(=O)N[C@@H](CCC(=O)O)C(=O)N[C@@H](Cc1c[nH]c2ccccc12)C(=O)N[C@@H](CC(C)C)C(=O)N[C@@H](CC(C)C)C(=O)N[C@@H](CCCNC(=N)N)C(=O)N[C@@H](C)C(N)=O)C(C)C)C(=O)O [Compound 202] (H-HSQGTFTSDYSKYLDK([γGlu-Palmitoyl])KAAHDFVEWLLRA-NH2) |
| 0.08 | CCCCCCCCCCCCCCCC(=O)N[C@@H](CCC(=O)NCCCC[C@H](NC(=O)[C@H](CO)NC(=O)[C@H](CC(=O)O)NC(=O)[C@H](CC(C)C)NC(=O)[C@H](Cc1ccc(O)cc1)NC(=O)[C@H](CCCCN)NC(=O)[C@H](CO)NC(=O)[C@H](Cc1ccc(O)cc1)NC(=O)[C@H](CC(=O)O)NC(=O)[C@H](CO)NC(=O)[C@@H](NC(=O)[C@H](Cc1ccccc1)NC(=O)[C@@H](NC(=O)CNC(=O)[C@H](CCC(N)=O)NC(=O)C(C)(C)NC(=O)[C@@H](N)Cc1c[nH]cn1)[C@@H](C)O)[C@@H](C)O)C(=O)N[C@@H](C)C(=O)N[C@@H](C)C(=O)N[C@@H](Cc1c[nH]cn1)C(=O)N[C@@H](CC(=O)O)C(=O)N[C@@H](Cc1ccccc1)C(=O)N[C@H](C(=O)N[C@H]1CCC(=O)NCCCC[C@@H](C(=O)N[C@@H](C)C(N)=O)NC(=O)[C@H](CC(C)C)NC(=O)[C@H](CC(C)C)NC(=O)[C@H](Cc2c[nH]c3ccccc23)NC1=O)C(C)C)C(=O)O [Compound 210] (H-H[Aib]QGTFTSDYSKYLDSK([γGlu-Palmitoyl])AAHDFVEWLLKA-NH2; lactam 24-28) |
| 0.23 | CCCCCCCCCCCCCCCC(=O)NCCC(=O)NCCCC[C@H](NC(=O)[C@H](CO)NC(=O)[C@H](CC(=O)O)NC(=O)[C@H](CC(C)C)NC(=O)[C@H](Cc1ccc(O)cc1)NC(=O)[C@H](CCCCN)NC(=O)[C@H](CO)NC(=O)[C@H](Cc1ccc(O)cc1)NC(=O)[C@H](CC(=O)O)NC(=O)[C@H](CO)NC(=O)[C@@H](NC(=O)[C@H](Cc1ccccc1)NC(=O)[C@@H](NC(=O)CNC(=O)[C@H](CCC(N)=O)NC(=O)C(C)(C)NC(=O)[C@@H](N)Cc1c[nH]cn1)[C@@H](C)O)[C@@H](C)O)C(=O)N[C@@H](C)C(=O)N[C@@H](C)C(=O)N[C@@H](Cc1c[nH]cn1)C(=O)N[C@@H](CC(=O)O)C(=O)N[C@@H](Cc1ccccc1)C(=O)N[C@H](C(=O)N[C@@H](CCC(=O)O)C(=O)N[C@@H](Cc1c[nH]c2ccccc12)C(=O)N[C@@H](CC(C)C)C(=O)N[C@@H](CC(C)C)C(=O)N[C@@H](CO)C(=O)N[C@@H](C)C(N)=O)C(C)C [Compound 215] |
| 0.24 | CCCCCCCCCCCCCCCC(=O)NCCCCCCCC(=O)NCCCC[C@H](NC(=O)[C@H](CO)NC(=O)[C@H](CC(=O)O)NC(=O)[C@H](CC(C)C)NC(=O)[C@H](Cc1ccc(O)cc1)NC(=O)[C@H](CCCCN)NC(=O)[C@H](CO)NC(=O)[C@H](Cc1ccc(O)cc1)NC(=O)[C@H](CC(=O)O)NC(=O)[C@H](CO)NC(=O)[C@@H](NC(=O)[C@H](Cc1ccccc1)NC(=O)[C@@H](NC(=O)CNC(=O)[C@H](CCC(N)=O)NC(=O)C(C)(C)NC(=O)[C@@H](N)Cc1c[nH]cn1)[C@@H](C)O)[C@@H](C)O)C(=O)N[C@@H](C)C(=O)N[C@@H](C)C(=O)N[C@@H](Cc1c[nH]cn1)C(=O)N[C@@H](CC(=O)O)C(=O)N[C@@H](Cc1ccccc1)C(=O)N[C@H](C(=O)N[C@@H](CCC(=O)O)C(=O)N[C@@H](Cc1c[nH]c2ccccc12)C(=O)N[C@@H](CC(C)C)C(=O)N[C@@H](CC(C)C)C(=O)N[C@@H](CO)C(=O)N[C@@H](C)C(N)=O)C(C)C [Compound 216] |
| 0.09 | CCCCCCCCCCCCCCCC(=O)NCCCC[C@H](N)C(=O)NCCCC[C@H](NC(=O)[C@H](CO)NC(=O)[C@H](CC(=O)O)NC(=O)[C@H](CC(C)C)NC(=O)[C@H](Cc1ccc(O)cc1)NC(=O)[C@H](CCCCN)NC(=O)[C@H](CO)NC(=O)[C@H](Cc1ccc(O)cc1)NC(=O)[C@H](CC(=O)O)NC(=O)[C@H](CO)NC(=O)[C@@H](NC(=O)[C@H](Cc1ccccc1)NC(=O)[C@@H](NC(=O)CNC(=O)[C@H](CCC(N)=O)NC(=O)C(C)(C)NC(=O)[C@@H](N)Cc1c[nH]cn1)[C@@H](C)O)[C@@H](C)O)C(=O)N[C@@H](C)C(=O)N[C@@H](C)C(=O)N[C@@H](Cc1c[nH]cn1)C(=O)N[C@@H](CC(=O)O)C(=O)N[C@@H](Cc1ccccc1)C(=O)N[C@H](C(=O)N[C@@H](CCC(=O)O)C(=O)N[C@@H](Cc1c[nH]c2ccccc12)C(=O)N[C@@H](CC(C)C)C(=O)N[C@@H](CC(C)C)C(=O)N[C@@H](CO)C(=O)N[C@@H](C)C(N)=O)C(C)C [Compound 217] |
| 0.1 | CSCC[C@H](NC(=O)[C@H](CC(C)C)NC(=O)[C@H](Cc1c[nH]c2ccccc12)NC(=O)[C@@H](NC(=O)[C@H](Cc1ccccc1)NC(=O)[C@H](CC(=O)O)NC(=O)[C@@H]1CCC(=O)NCCCC[C@H](NC(=O)[C@H](CC(=O)O)NC(=O)[C@H](CC(C)C)NC(=O)[C@H](Cc2ccc(O)cc2)NC(=O)[C@H](CCCCN)NC(=O)[C@H](CO)NC(=O)[C@H](Cc2ccc(O)cc2)NC(=O)[C@H](CC(=O)O)NC(=O)[C@H](CO)NC(=O)[C@@H](NC(=O)[C@H](Cc2ccccc2)NC(=O)[C@@H](NC(=O)CNC(=O)[C@H](CCC(N)=O)NC(=O)[C@H](CO)NC(=O)[C@@H](N)Cc2c[nH]cn2)[C@@H](C)O)[C@@H](C)O)C(=O)N[C@@H](CCCNC(=N)N)C(=O)N[C@@H](CCCNC(=N)N)C(=O)N[C@@H](C)C(=O)N1)C(C)C)C(=O)N[C@@H](CC(N)=O)C(=O)N[C@H](C(N)=O)[C@@H](C)O [Compound 257] (H-HSQGTFTSDYSKYLDKRRAEDFVWLMNT-NH2; lactam 16-20) |
| 0.11 | CCCCCCCCCCCCCCCC(=O)N[C@@H](CCC(=O)NCCCC[C@H](NC(=O)[C@H](CO)NC(=O)[C@H](CC(=O)O)NC(=O)[C@H](CC(C)C)NC(=O)[C@H](Cc1ccc(O)cc1)NC(=O)[C@H](CCCCN)NC(=O)[C@H](CO)NC(=O)[C@H](Cc1ccc(O)cc1)NC(=O)[C@H](CC(=O)O)NC(=O)[C@H](CO)NC(=O)[C@@H](NC(=O)[C@H](Cc1ccccc1)NC(=O)[C@@H](NC(=O)CNC(=O)[C@H](CCC(N)=O)NC(=O)[C@H](CO)NC(=O)[C@@H](N)Cc1c[nH]cn1)[C@@H](C)O)[C@@H](C)O)C(=O)N[C@@H](C)C(=O)N[C@@H](C)C(=O)N[C@@H](Cc1c[nH]cn1)C(=O)N[C@@H](CC(=O)O)C(=O)N[C@@H](Cc1ccccc1)C(=O)N[C@H](C(=O)N[C@@H](CCC(=O)O)C(=O)N[C@@H](Cc1c[nH]c2ccccc12)C(=O)N[C@@H](CC(C)C)C(=O)N[C@@H](CC(C)C)C(=O)N[C@@H](CCCNC(=N)N)C(=O)N[C@@H](C)C(N)=O)C(C)C)C(=O)O [Compound 262] (H-HSQGTFTSDYSKYLDSK([γGlu-Palmitoyl])AAHDFVEWLLRA-NH2) |
| 0.5 | H-HSQGTFTSDYSRYLDSRRAKDFVWLLNT-NH2 [Compound 252] |
